In ChEMBL document CHEMBL1124625, “Flavones. 2. Synthesis and structure-activity relationship of flavodilol and its analogues, a novel class of antihypertensive agents with catecholamine depleting properties” (J Med Chem, 1989):
Blank lines part the entries; values can stand above or below the compound they belong to.

How the values were obtained:
Rattus norvegicus [1] = experiment: Systolic blood pressure (SBP) in anesthetized spontaneously hypertensive rats (SHR) before administration of 75 mg/kg dose perorally.; type: functional; design: unit: mmHg; conditions: route oral
Rattus norvegicus [2] = experiment: Systolic blood pressure (SBP) in anesthetized spontaneously hypertensive rats(SHR) at 7.5 hours after administration of 75 mg/kg dose perorally; NS is not statistically significant.
Rattus norvegicus [3] = experiment: Systolic blood pressure (SBP) in anesthetized spontaneously hypertensive rats(SHR) at 7.5 hours after administration of 75 mg/kg dose perorally; type: functional; conditions: route oral
Rattus norvegicus [4] = experiment: Systolic blood pressure (SBP) in anesthetized spontaneously hypertensive rats(SHR) before administration of 150 mg/kg dose perorally; type: functional; conditions: route oral
Adrenergic receptor beta = Adrenergic receptor beta (Rattus norvegicus, UniProt P18090+P10608+P26255)
Description: Inhibition constant from beta adrenergic receptor binding assay

Rattus norvegicus [5] = experiment: Systolic blood pressure (SBP) in anesthetized spontaneously hypertensive rats(SHR) at 7.5 hours after administration of 35 mg/kg dose perorally; type: functional; conditions: route oral
Rattus norvegicus [6] = experiment: Systolic blood pressure (SBP) in anesthetized spontaneously hypertensive rats(SHR) before administration of 35 mg/kg dose perorally; type: functional; design: unit not given here; conditions: route oral
Rattus norvegicus [7] = experiment: Systolic blood pressure (SBP) in anesthetized spontaneously hypertensive rats(SHR) before administration of 30 mg/kg dose intravenously; type: functional; conditions: route intravenous
Rattus norvegicus [8] = experiment: Systolic blood pressure (SBP) in anesthetized spontaneously hypertensive rats(SHR) at 7.5 hours after administration of 30 mg/kg dose intravenously; NS is not statistically significant; type: functional, organism-based; design: dose 30 mg/kg
Rattus norvegicus [9] = experiment: Systolic blood pressure (SBP) in anesthetized spontaneously hypertensive rats(SHR) at 7.5 hours after administration of 75 mg/kg dose perorally; NS is not statistically significant
Rattus norvegicus [10] = experiment: % decrease in heart norepinephrine in anesthetized spontaneously hypertensive rats(SHR) at 5 hours after administration of 75 mg/kg dose perorally; type: functional; conditions: route oral
Rattus norvegicus [11] = experiment: % decrease in hypothalamus norepinephrine in anesthetized spontaneously hypertensive rats(SHR) at 5 hours after administration of 75 mg/kg dose perorally; type: functional; conditions: route oral
Rattus norvegicus [12] = experiment: % decrease in hypothalamus norepinephrine in anesthetized spontaneously hypertensive rats(SHR) at 5 hours after administration of 35 mg/kg dose perorally; type: functional; conditions: route oral
Rattus norvegicus [13] = experiment: % decrease in heart norepinephrine in anesthetized spontaneously hypertensive rats(SHR) at 5 hours after administration of 35 mg/kg dose perorally; type: functional; conditions: route oral
Rattus norvegicus [14] = experiment: % decrease in hypothalamus DA in anesthetized spontaneously hypertensive rats(SHR) at 5 hours after administration of 150 mg/kg dose perorally; conditions: route oral
Rattus norvegicus [15] = experiment: % decrease in heart 5-HT in anesthetized spontaneously hypertensive rats(SHR) at 5 hours after administration of 35 mg/kg dose perorally; type: functional; conditions: route oral
Rattus norvegicus [16] = experiment: % decrease in heart 5-HT in anesthetized spontaneously hypertensive rats(SHR) at 5 hours after administration of 150 mg/kg dose perorally; type: functional; conditions: route oral
Rattus norvegicus [17] = experiment: % decrease in hypothalamus dopamine in anesthetized spontaneously hypertensive rats(SHR) at 5 hours after administration of 35 mg/kg dose perorally; type: functional; conditions: route oral
Rattus norvegicus [18] = experiment: % decrease in hypothalamus dopamine in anesthetized spontaneously hypertensive rats(SHR) at 5 hours after administration of 75 mg/kg dose perorally; type: functional; conditions: route oral
Rattus norvegicus [19] = experiment: % decrease in heart 5-HT in anesthetized spontaneously hypertensive rats(SHR) at 5 hours after administration of 75 mg/kg dose perorally; *value significantly different was control.; type: functional; conditions: route oral
Rattus norvegicus [20] = experiment: % decrease in hypothalamus norepinephrine in anesthetized spontaneously hypertensive rats(SHR) at 5 hours after administration of 150 mg/kg dose perorally; type: functional; conditions: route oral
Rattus norvegicus [21] = experiment: % decrease in heart norepinephrine in anesthetized spontaneously hypertensive rats(SHR) at 5 hours after administration of 150 mg/kg dose perorally; type: functional; conditions: route oral
Rattus norvegicus [22] = experiment: % decrease in systolic blood pressure (SBP) in anesthetized spontaneously hypertensive rats(SHR) after administration of 150 mg/kg dose perorally; conditions: route oral
Cavia porcellus = species: Cavia porcellus; experiment: Inhibition of the isoproterenol response at a dose of 1 x 10e -4M in guinea pig; slight inhibition was found; type: functional, organism-based

Compound: COc1ccc(CCNCC(O)COc2ccc3c(=O)cc(-c4ccccc4)oc3c2)cc1OC (stereo not given)
- Systolic blood pressure (Rattus norvegicus [1]): 204
- Decrease in Systolic blood pressure (Rattus norvegicus [2]): Not significant

Compound: CCCNCC(COc1ccc2c(=O)cc(-c3ccccc3)oc2c1)OC(=O)c1ccccc1 (stereo not given)
- Systolic blood pressure (Rattus norvegicus [1]): 187
- Decrease in Systolic blood pressure (Rattus norvegicus [3]): 22.5%

- Ki (Adrenergic receptor beta): 18 µM
Compound: CC(C)(C)NCC(O)COc1ccc2c(=O)cc(-c3ccccc3)oc2c1 (stereo not given)
- Systolic blood pressure (Rattus norvegicus [4]): 201

Compound: Cc1ccc(-c2cc(=O)c3ccc(OCC(O)CNC(C)C)cc3o2)cc1 (stereo not given)
- Systolic blood pressure (Rattus norvegicus [1]): 196
- Decrease in Systolic blood pressure (Rattus norvegicus [2]): Not significant

Compound: CC(C)NCC(O)COc1cc(O)c2c(=O)cc(-c3ccccc3)oc2c1 (stereo not given)
- Systolic blood pressure (Rattus norvegicus [1]): 195
- Decrease in Systolic blood pressure (Rattus norvegicus [3]): 15%

Compound: CC(C)NCC(O)COc1ccc2c(=O)cc(-c3ccccc3Cl)oc2c1 (stereo not given)
- Decrease in Systolic blood pressure (Rattus norvegicus [5]): 18%
- Systolic blood pressure (Rattus norvegicus [6]): 192

Compound: CC(C)NCC(O)COc1ccc2c(=O)cc(-c3ccc(Cl)cc3)oc2c1 (stereo not given)
- Decrease in Systolic blood pressure (Rattus norvegicus [5]): 19%
- Systolic blood pressure (Rattus norvegicus [6]): 192

Compound: CCCCNCC(O)COc1ccc2c(=O)cc(-c3ccccc3)oc2c1 (stereo not given)
- Decrease in Systolic blood pressure (Rattus norvegicus [5]): 26%
- Systolic blood pressure (Rattus norvegicus [6]): 202

Compound: CCCNCC(O)COc1cccc2oc(-c3ccccc3)cc(=O)c12 (stereo not given)
- Systolic blood pressure (Rattus norvegicus [7]): 157
- Decrease in Systolic blood pressure (Rattus norvegicus [8]): Not significant

Compound: O=c1cc(-c2ccccc2)oc2cc(OCC(O)CNC3CCS(=O)(=O)C3)ccc12 (stereo not given)
- Systolic blood pressure (Rattus norvegicus [1]): 196
- Decrease in Systolic blood pressure (Rattus norvegicus [9]): Not significant

Compound: CC(C)NCC(O)COc1ccc2c(=O)cc(-c3ccc([N+](=O)[O-])cc3)oc2c1 (stereo not given)
- Systolic blood pressure (Rattus norvegicus [1]): 202
- Decrease in Systolic blood pressure (Rattus norvegicus [2]): Not significant

Compound: NCC(O)COc1ccc2c(=O)cc(-c3ccccc3)oc2c1 (stereo not given)
- Systolic blood pressure (Rattus norvegicus [1]): 187
- Decrease in Systolic blood pressure (Rattus norvegicus [9]): Not significant

Compound: COc1c(-c2ccccc2)oc2cc(OCC(O)CNC(C)C)ccc2c1=O (stereo not given)
- Decrease (Rattus norvegicus [10]): 61%
- Decrease (Rattus norvegicus [11]): 16%
- Decrease (Rattus norvegicus [12]): 12%
- Decrease in Systolic blood pressure (Rattus norvegicus [9]): Not significant
- Decrease (Rattus norvegicus [13]): 55%
- % decrease hypothalamus DA (Rattus norvegicus [14]): 37%
- Decrease (Rattus norvegicus [15]): 7%
- Decrease (Rattus norvegicus [16]): 37%
- Decrease (Rattus norvegicus [17]): 29%
- Decrease (Rattus norvegicus [18]): 26%
- Decrease (Rattus norvegicus [19]): 29%
- Decrease (Rattus norvegicus [20]): 28%
- Decrease (Rattus norvegicus [21]): 70%
- % decrease SBP (Rattus norvegicus [22]): 16%

Compound: CC(C)[N+](C)(C)CC(O)COc1ccc2c(=O)cc(-c3ccccc3)oc2c1.[I-] (stereo not given)
- Systolic blood pressure (Rattus norvegicus [1]): 200
- Decrease in Systolic blood pressure (Rattus norvegicus [9]): Not significant

Compound: Cc1c(-c2ccccc2)oc2cc(OCC(O)CNC(C)C)ccc2c1=O (stereo not given)
- Activity (Cavia porcellus): slight inhibition was found
- Systolic blood pressure (Rattus norvegicus [1]): 208
- Decrease in Systolic blood pressure (Rattus norvegicus [3]): 27%
- Decrease in Systolic blood pressure (Rattus norvegicus [5]): 10%
- Systolic blood pressure (Rattus norvegicus [6]): 206

Compound: O=c1cc(-c2ccccc2)oc2cc(OCC(O)CN3CCN(c4ccccc4)CC3)ccc12 (stereo not given)
- Systolic blood pressure (Rattus norvegicus [1]): 217
- Decrease in Systolic blood pressure (Rattus norvegicus [2]): Not significant

Compound: CC(C)NCC(O)COc1ccc2c(=O)cc(-c3cccc(Cl)c3)oc2c1 (stereo not given)
- Systolic blood pressure (Rattus norvegicus [1]): 200
- Decrease in Systolic blood pressure (Rattus norvegicus [2]): Not significant

Compound: CCCNCC(O)COc1ccc2c(=O)c(Cc3ccccc3)c(-c3ccccc3)oc2c1 (stereo not given)
- Systolic blood pressure (Rattus norvegicus [1]): 198
- Decrease in Systolic blood pressure (Rattus norvegicus [3]): 14%

- Ki (Adrenergic receptor beta): 2.2 µM
Compound: CC(C)NCC(O)COc1ccc2oc(-c3ccccc3)cc(=O)c2c1 (stereo not given)
- Activity (Cavia porcellus): Weak activity
- Systolic blood pressure (Rattus norvegicus [1]): 199
- Decrease in Systolic blood pressure (Rattus norvegicus [3]): 12%
